Data taken from patent US20110293511A1, “SPECIFIC BINDING PROTEINS AND USES THEREOF” (priority 2009, published 2011).

Test system: A431 xenografts
Experiment: s.c. xenograft therapy study
Format: in vivo, nude mice
Settings: preventative model; 0.1 mg mAb806; 400 μg AG1478
Description: Tumor cells (3×10^6) in […] of PBS were inoculated subcutaneously into both flanks of 4-6 week old female nude mice (Animal Research Centre, Western Australia, Australia). […] Treatment was continued for a total of 6 doses, 3 times per week for 2 weeks. In the established model, treatment was started when tumors had reached a mean volume of 65±6.42 mm^3 (U87MG.Δ2-7), 84±9.07 mm3 (U87MG), 73±7.5 mm^3 (U87MG.wtEGFR) or 201±19.09 mm^3 (A431 tumors). Tumor volume in mm^3 was determined using the formula (length×width)/2, where length was the longest axis and width the measurement at right angles to the length (Clark et al. (2000) Therapeutic efficacy of anti-Lewis (y) humanized 3S 193 radioimmunotherapy in a breast cancer model: enhanced activity when combined with Taxol chemotherapy. Clin. Cancer Res. 6, 3621-3628). Data was expressed as mean tumor volume±S.E. for each treatment group. Statistical analysis was performed at given time points using Student's t-test. […]
To establish xenografts, mice were injected subcutaneously into the right and left inguinal mammary line with 1×10^6 A431 adenocarcinoma cells or 1×10^6 U87MG.de2-7 glioma cells in 100 μl of PBS. Tumor volume (TV) was calculated by the formula [(length×width)/2] where length was the longest axis and width the measurement at right angles to length. […]

COc1cc2ncnc(Nc3cccc(Cl)c3)c2cc1OC [AG1478, 4-(3-Chloroanilino)-6,7-dimethoxyquinazoline, reference compound]
reduction of tumor volume: significant reduction of tumor volume
